What was measured:
[1] = target: T1, HiBit-BRG1 (Homo sapiens, UniProt P51532); experiment: HiBit-BRG1 cell-based degradation assay (Nano-Glo HiBiT Lytic Detection); conditions: HeLa cells expressing HiBit-BRG1 and LgBit, 24 h; for DC50: read-out: BRG1 HiBit Degradation IC50; for Dmax: read-out: BRG1 HiBit Degradation Maximum (%)
T1 construct: expressed in transfected cells
Summary of the method: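 HeLa cells stably expressing HiBit-BRG1 plus LgBit; compound exposure 24 h; Nano-Glo HiBiT lytic luminescence; % degradation vs DMSO (0%) and 2 μM standard BRM/BRG1 degrader (100%).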

[2] = target: T2, HiBiT-BRM (Homo sapiens, UniProt P51531); experiment: HiBiT-BRM cell-based degradation assay (Nano-Glo HiBiT Lytic Detection); conditions: HeLa cells expressing HiBiT-BRM, 24 h; for DC50: read-out: BRM HiBit Degradation IC50
T2 construct: expressed in transfected cells
T2 sequence (P51531 whole entry): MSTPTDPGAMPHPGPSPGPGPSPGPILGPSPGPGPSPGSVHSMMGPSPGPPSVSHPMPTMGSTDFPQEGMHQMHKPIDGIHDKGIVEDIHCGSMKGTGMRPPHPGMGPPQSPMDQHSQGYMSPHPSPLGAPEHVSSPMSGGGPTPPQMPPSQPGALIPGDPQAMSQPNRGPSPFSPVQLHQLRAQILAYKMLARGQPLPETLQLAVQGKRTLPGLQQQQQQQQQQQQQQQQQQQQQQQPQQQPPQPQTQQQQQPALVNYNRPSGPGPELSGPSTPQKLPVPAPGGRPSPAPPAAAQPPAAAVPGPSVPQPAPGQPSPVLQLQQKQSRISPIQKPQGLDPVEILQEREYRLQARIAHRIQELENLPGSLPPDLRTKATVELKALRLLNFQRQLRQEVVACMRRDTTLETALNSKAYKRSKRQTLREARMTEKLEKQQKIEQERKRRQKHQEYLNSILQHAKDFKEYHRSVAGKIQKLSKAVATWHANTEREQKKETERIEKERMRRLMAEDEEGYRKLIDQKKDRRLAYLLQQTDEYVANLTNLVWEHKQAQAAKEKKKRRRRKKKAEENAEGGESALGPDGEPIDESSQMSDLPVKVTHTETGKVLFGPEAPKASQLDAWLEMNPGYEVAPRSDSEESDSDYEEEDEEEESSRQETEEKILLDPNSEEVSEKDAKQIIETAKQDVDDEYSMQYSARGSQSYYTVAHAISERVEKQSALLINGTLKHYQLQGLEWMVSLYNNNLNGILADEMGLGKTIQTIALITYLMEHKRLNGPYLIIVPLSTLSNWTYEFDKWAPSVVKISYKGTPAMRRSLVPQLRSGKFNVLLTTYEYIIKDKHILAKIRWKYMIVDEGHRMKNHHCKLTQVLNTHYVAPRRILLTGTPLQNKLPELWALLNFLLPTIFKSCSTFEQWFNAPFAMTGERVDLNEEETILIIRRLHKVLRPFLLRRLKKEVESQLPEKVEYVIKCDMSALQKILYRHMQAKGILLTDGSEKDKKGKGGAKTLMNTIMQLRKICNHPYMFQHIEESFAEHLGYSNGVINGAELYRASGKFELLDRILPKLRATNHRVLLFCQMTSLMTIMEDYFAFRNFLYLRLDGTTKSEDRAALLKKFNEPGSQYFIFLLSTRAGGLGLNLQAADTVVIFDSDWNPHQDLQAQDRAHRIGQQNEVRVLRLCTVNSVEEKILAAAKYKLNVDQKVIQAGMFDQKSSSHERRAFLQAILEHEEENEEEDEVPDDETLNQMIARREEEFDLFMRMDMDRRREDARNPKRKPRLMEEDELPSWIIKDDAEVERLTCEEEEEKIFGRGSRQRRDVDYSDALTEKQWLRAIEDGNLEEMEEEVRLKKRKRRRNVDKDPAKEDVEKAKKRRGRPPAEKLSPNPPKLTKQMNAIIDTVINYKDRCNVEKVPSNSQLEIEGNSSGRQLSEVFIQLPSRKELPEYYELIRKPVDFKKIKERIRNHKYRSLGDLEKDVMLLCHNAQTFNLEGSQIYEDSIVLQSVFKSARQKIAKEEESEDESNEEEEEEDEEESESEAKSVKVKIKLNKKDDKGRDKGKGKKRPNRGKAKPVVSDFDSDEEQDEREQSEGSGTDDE
Summary of the method: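 HeLa cells stably expressing HiBiT-tagged BRM were treated for 24 h, then lysed with LgBiT-containing Nano-Glo reagent and luminescence read. % degradation scaled between DMSO (high control) and 2 μM reference BRM/BRG1 degrader (low control).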

T1 sequence (P51532 whole entry): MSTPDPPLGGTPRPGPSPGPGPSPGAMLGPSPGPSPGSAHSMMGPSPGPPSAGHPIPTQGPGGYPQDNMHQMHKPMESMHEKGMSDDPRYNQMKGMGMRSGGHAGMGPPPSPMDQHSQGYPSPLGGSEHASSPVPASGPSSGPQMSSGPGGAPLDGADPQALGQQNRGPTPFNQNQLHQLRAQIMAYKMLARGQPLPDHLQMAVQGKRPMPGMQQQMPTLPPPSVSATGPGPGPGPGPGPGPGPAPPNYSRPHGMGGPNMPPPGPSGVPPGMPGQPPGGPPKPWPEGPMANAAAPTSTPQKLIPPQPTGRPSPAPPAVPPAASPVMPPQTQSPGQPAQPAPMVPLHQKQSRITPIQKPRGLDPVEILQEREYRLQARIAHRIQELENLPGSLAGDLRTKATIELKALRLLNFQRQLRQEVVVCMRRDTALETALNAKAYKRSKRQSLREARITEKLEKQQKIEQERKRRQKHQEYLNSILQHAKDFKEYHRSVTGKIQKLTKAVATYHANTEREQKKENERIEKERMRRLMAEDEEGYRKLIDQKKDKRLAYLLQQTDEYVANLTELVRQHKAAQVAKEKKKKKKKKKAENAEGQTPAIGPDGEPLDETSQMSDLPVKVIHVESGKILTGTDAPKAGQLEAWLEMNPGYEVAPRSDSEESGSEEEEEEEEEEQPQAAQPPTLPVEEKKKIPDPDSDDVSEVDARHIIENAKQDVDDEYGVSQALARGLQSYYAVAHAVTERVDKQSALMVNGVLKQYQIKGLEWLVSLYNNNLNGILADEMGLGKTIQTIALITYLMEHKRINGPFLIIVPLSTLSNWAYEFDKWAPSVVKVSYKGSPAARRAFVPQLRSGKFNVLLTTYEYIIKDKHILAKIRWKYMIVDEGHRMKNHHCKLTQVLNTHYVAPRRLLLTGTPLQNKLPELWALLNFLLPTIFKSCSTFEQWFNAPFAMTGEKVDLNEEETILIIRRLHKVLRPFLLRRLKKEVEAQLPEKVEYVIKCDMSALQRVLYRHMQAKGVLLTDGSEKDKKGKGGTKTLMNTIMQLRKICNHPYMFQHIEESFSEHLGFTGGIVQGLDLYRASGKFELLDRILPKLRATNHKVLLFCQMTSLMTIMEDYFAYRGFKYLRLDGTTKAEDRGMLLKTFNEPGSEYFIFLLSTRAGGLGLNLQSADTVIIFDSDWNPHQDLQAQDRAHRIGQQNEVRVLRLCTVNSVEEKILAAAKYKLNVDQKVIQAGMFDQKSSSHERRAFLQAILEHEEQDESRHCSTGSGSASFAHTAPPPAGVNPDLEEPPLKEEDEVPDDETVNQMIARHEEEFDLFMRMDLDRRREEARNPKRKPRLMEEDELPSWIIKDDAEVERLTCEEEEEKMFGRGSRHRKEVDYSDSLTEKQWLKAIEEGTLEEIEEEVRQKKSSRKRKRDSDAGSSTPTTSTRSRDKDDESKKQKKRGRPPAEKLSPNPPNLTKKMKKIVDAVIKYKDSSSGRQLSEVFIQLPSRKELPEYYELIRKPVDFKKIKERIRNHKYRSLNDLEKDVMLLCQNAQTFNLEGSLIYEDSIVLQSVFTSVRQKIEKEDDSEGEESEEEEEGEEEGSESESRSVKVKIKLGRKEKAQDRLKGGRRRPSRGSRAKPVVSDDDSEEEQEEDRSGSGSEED

Structure (SMILES) | DC50 [1] [µM] | Dmax [1] [%] | DC50 [2] [µM] | BRM HiBit Degradation Maximum (%) [2]
Nc1nnc(-c2ccccc2O)cc1OCCc1ccc(CNCCCCNc2cccc3c2C(=O)N(C2CCC(=O)NC2=O)C3=O)cc1 (stereo not drawn) [Compound 107, 4-[[4-([[4-(2-[[3-amino-6-(2-hydroxyphenyl)pyridazin-4-yl]oxy]ethyl)phenyl]methyl]amino)butyl]amino]-2-(2,6-dioxopiperidin-3-yl)isoindole-1,3-dione] | > 1 | > 50 | > 1 | C (“C” indicates maximum degradation <50%)
Nc1nnc(-c2ccccc2O)cc1OCCc1ccc(CNC(=O)CCCCCCCOc2cccc3c2C(=O)N(C2CCC(=O)NC2=O)C3=O)cc1 (stereo not drawn) [Compound 69, N-[[4-(2-[[3-amino-6-(2-hydroxyphenyl)pyridazin-4-yl]oxy]ethyl)phenyl]methyl]-8-[[2-(2,6-dioxopiperidin-3-yl)-1,3-dioxoisoindol-4-yl]oxy]octanamide] | > 1 | < 50 | > 1 | C (“C” indicates maximum degradation <50%)
Cc1ncsc1-c1ccc(CNC(=O)[C@@H]2C[C@@H](O)CN2C(=O)[C@@H](NC(=O)CCCCCCCCCNC(=O)c2ccc(CCN(C)c3cc(-c4ccccc4O)nnc3N)cc2)C(C)(C)C)cc1 [Compound 20, (2S,4R)-1-[(2S)-2-(10-[[4-(2-[[3-amino-6-(2-hydroxyphenyl)pyridazin-4-yl](methyl)amino]ethyl)phenyl]formamido]decanamido)-3,3-dimethylbutanoyl]-4-hydroxy-N-[[4-(4-methyl-1,3-thiazol-5-yl)phenyl]methyl]pyrrolidine-2-carboxamide] | > 0.1 | > 75 | > 0.01 | A (“A” indicates maximum degradation ≥75%)
Nc1nnc(-c2ccccc2O)cc1OCCc1ccc(C(=O)NCCCC(=O)NCc2ccc(S(=O)(=O)Nc3cccc4c(Cl)c[nH]c34)cc2)cc1 [Compound 16, 4-[[4-(2-[[3-amino-6-(2-hydroxyphenyl)pyridazin-4-yl]oxy]ethyl)phenyl]formamido]-N-([4-[(3-chloro-1H-indol-7-yl)sulfamoyl]phenyl]methyl)butanamide] | > 1 | < 50 | > 1 | C (“C” indicates maximum degradation <50%)
CN(Cc1ccc(CCOc2cc(-c3ccccc3O)nnc2N)cc1)C(=O)CCCCOc1cccc2c1C(=O)N(C1CCC(=O)NC1=O)C2=O (stereo not drawn) [Compound 10, N-(4-(2-((3-amino-6-(2-hydroxyphenyl)pyridazin-4-yl)oxy)ethyl)benzyl)-5-((2-(2,6-dioxopiperidin-3-yl)-1,3-dioxoisoindolin-4-yl)oxy)-N-methylpentanamide] | > 1 | < 50 | > 1 | C (“C” indicates maximum degradation <50%)
Nc1nnc(-c2ccccc2O)cc1N1CCN(CCNC(=O)CCCCCCCCCNc2cccc3c2C(=O)N(C2CCC(=O)NC2=O)C3=O)CC1 (stereo not drawn) [Compound 98, N-(2-[4-[3-amino-6-(2-hydroxyphenyl)pyridazin-4-yl]piperazin-1-yl]ethyl)-10-[[2-(2,6-dioxopiperidin-3-yl)-1,3-dioxo-2,3-dihydro-1H-isoindol-4-yl]amino]decanamide] | > 1 | < 50 | > 1 | C (“C” indicates maximum degradation <50%)
Nc1nnc(-c2ccccc2O)cc1OCCc1ccc(CNCCCCOc2cccc3c2C(=O)N(C2CCC(=O)NC2=O)C3=O)cc1 (stereo not drawn) [Compound 121, 4-(4-((4-(2-((3-amino-6-(2-hydroxyphenyl)pyridazin-4-yl)oxy)ethyl)benzyl)amino)butoxy)-2-(2,6-dioxopiperidin-3-yl)isoindoline-1,3-dione] | > 1 | < 50 | > 1 | C (“C” indicates maximum degradation <50%)

More lines, main results first:

DC50 [1] [µM] | Dmax [1] [%] | DC50 [2] [µM] | Structure (SMILES) | BRM HiBit Degradation Maximum (%) [2]
> 0.1 | > 50 | > 0.01 | Cc1ncsc1-c1ccc([C@H](C)NC(=O)[C@@H]2C[C@@H](O)CN2C(=O)[C@@H](c2cc(OCCN3CC(OC4CCN(C(=O)c5ccc(CCOc6cc(-c7ccccc7O)nnc6N)cc5)CC4)C3)no2)C(C)C)cc1 [Compound 237, (2S,4R)-1-((R)-2-(3-(2-(3-((1-(4-(2-((3-amino-6-(2-hydroxyphenyl)pyridazin-4-yl)oxy)ethyl)benzoyl)piperidin-4-yl)oxy)azetidin-1-yl)ethoxy)isoxazol-5-yl)-3-methylbutanoyl)-4-hydroxy-N-((S)-1-(4-(4-methylthiazol-5-yl)phenyl)ethyl)pyrrolidine-2-carboxamide] | A (“A” indicates maximum degradation ≥75%)
> 1 | < 50 | > 1 | Nc1nnc(-c2ccccc2O)cc1OCCc1ccc(CN2CCN(CCOc3cccc4c3C(=O)N(C3CCC(=O)NC3=O)C4=O)CC2)cc1 (stereo not drawn) [Compound 126, 4-[2-(4-[[4-(2-[[3-amino-6-(2-hydroxyphenyl)pyridazin-4-yl]oxy]ethyl)phenyl]methyl]piperazin-1-yl)ethoxy]-2-(2,6-dioxopiperidin-3-yl)isoindole-1,3-dione] | C (“C” indicates maximum degradation <50%)
> 1 | < 50 | > 0.01 | Cc1ncsc1-c1ccc([C@H](C)NC(=O)[C@@H]2C[C@@H](O)CN2C(=O)[C@@H](NC(=O)CCCCCCCCCCN2CCN(Cc3ccc(CCOc4cc(-c5ccccc5O)nnc4N)cc3)CC2)C(C)(C)C)cc1 [Compound 263] | A (“A” indicates maximum degradation ≥75%)
> 1 | < 50 | > 1 | Cc1ncsc1-c1ccc(CNC(=O)[C@@H]2C[C@@H](O)CN2C(=O)[C@@H](NC(=O)CCN2CCC(C3CN(C(=O)c4ccc(CCOc5cc(-c6ccccc6O)nnc5N)cc4)C3)CC2)C(C)(C)C)cc1 [Compound 204, (2S,4R)-1-((S)-2-(3-(4-(1-(4-(2-((3-amino-6-(2-hydroxyphenyl)pyridazin-4-yl)oxy)ethyl)benzoyl)azetidin-3-yl)piperidin-1-yl)propanamido)-3,3-dimethylbutanoyl)-4-hydroxy-N-(4-(4-methylthiazol-5-yl)benzyl)pyrrolidine-2-carboxamide] | B (“B” indicates maximum degradation ≥50%)
> 1 | < 50 | > 0.1 | CCN(CCc1ccc(C(=O)NCCCCCCCCCC(=O)N[C@H](C(=O)N2C[C@H](O)C[C@H]2C(=O)NCc2ccc(-c3scnc3C)cc2)C(C)(C)C)cc1)c1cc(-c2ccccc2O)nnc1N (racemic) [Compound 144, (2S,4R)-1-((S)-2-(10-(4-(2-((3-amino-6-(2-hydroxyphenyl)pyridazin-4-yl)(ethyl)amino)ethyl)benzamido)decanamido)-3,3-dimethylbutanoyl)-4-hydroxy-N-(4-(4-methylthiazol-5-yl)benzyl)pyrrolidine-2-carboxamide] | A (“A” indicates maximum degradation ≥75%)
> 0.1 | > 75 | > 0.01 | Cc1ncsc1-c1ccc([C@H](C)NC(=O)[C@@H]2C[C@@H](O)CN2C(=O)[C@@H](c2cc(OCCN3CCC4(CC3)CCN(C(=O)c3ccc(CCOc5cc(-c6ccccc6O)nnc5N)cc3)CC4)no2)C(C)C)cc1 [Compound 209, (2S,4R)-1-[(2R)-2-[3-(2-[9-[4-(2-[[3-amino-6-(2-hydroxyphenyl)pyridazin-4-yl]oxy]ethyl)benzoyl]-3,9-diazaspiro[5.5]undecan-3-yl]ethoxy)-1,2-oxazol-5-yl]-3-methylbutanoyl]-4-hydroxy-N-[(1S)-1-[4-(4-methyl-1,3-thiazol-5-yl)phenyl]ethyl]pyrrolidine-2-carboxamide] | A (“A” indicates maximum degradation ≥75%)
> 0.1 | > 50 | > 0.01 | Nc1nnc(-c2ccccc2O)cc1OCCc1ccc(CNCCN2CCN(c3cccc4c3C(=O)N(C3CCC(=O)NC3=O)C4=O)CC2)cc1 (stereo not drawn) [Compound 110, 4-[4-[2-([[4-(2-[[3-amino-6-(2-hydroxyphenyl)pyridazin-4-yl]oxy]ethyl)phenyl]methyl]amino)ethyl]piperazin-1-yl]-2-(2,6-dioxopiperidin-3-yl)isoindole-1,3-dione] | A (“A” indicates maximum degradation ≥75%)
> 1 | < 50 | > 1 | Cc1ncsc1-c1ccc(CNC(=O)[C@@H]2C[C@@H](O)CN2C(=O)[C@@H](NC(=O)CCN2C[C@H]3CN(CCC(=O)NCc4ccc(CCOc5cc(-c6ccccc6O)nnc5N)cc4)C[C@H]3C2)C(C)(C)C)cc1 [Compound 235, (2S,4R)-1-((2S)-2-(3-(5-(3-((4-(2-((3-amino-6-(2-hydroxyphenyl)pyridazin-4-yl)oxy)ethyl)benzyl)amino)-3-oxopropyl)hexahydropyrrolo[3,4-c]pyrrol-2(1H)-yl)propanamido)-3,3-dimethylbutanoyl)-4-hydroxy-N-(4-(4-methylthiazol-5-yl)benzyl)pyrrolidine-2-carboxamide] | C (“C” indicates maximum degradation <50%)

Source: patent US20230150974A1 (Foghorn Therapeutics Inc., priority 2020, published 2023)
